Results from patent US12239654B2, “Compounds and methods for treating neurological and cardiovascular conditions” (Astrocyte Pharmaceuticals, Inc., priority 2016, dated 2025).

Columns and labels:
[1] = In vitro stability of MRS2365 in mouse plasma; assay type: in vitro ADME
Protocol: Whole blood was obtained from male CD-1 mice and human volunteers at Seventh Wave Laboratories (Maryland Heights, MO). Plasma and blood samples were prepared using either EDTA (1 mM) or lithium heparin as anticoagulants.
Plasma Stability Determination: MRS2365, enalapril and procaine were solubilized in phosphate-buffered saline, pH 7.4. […] Stability incubations were initiated with the addition of MRS2365 (1 μM final concentration). Initial assessments of stability in EDTA-generated plasma utilized incubation timepoints of 0, 10, 30, 60, 120 and 240 minutes (FIGS. 3 and 4). Subsequent studies comparing EDTA- and heparin-generated plasma utilized incubation timepoints of 0, 1, 2.5, 5, 7.5, 10 and 30 minutes (FIG. 7). Additional plasma stability incubations comparing EDTA- and heparin-generated plasma were performed using timepoints of 0, 5, 10, 20, 30, 45, 60 and 90 seconds (FIG. 8). For metabolite scouting analyses, MRS2365 was incubated in heparinized human plasma at a concentration of 100 μM for 10 or 30 minutes (FIG. 9). In all studies, plasma was immediately placed in microtainer tubes, frozen on dry ice and stored at −80° C. until analysis.
The following table outlines the LC and MS/MS conditions employed (Table 11).
The calibration range for MRS2365 plasma and blood concentration standard curves was 5-5000 ng/mL. […]

[2] = Previous/initial in vivo pharmacokinetic assessments of MRS2365 in mice
[3] = target: T1, mouse A3 adenosine receptor (Mus musculus, UniProt Q61618); experiment: cAMP accumulation at mouse A3 receptors expressed in CHO cells; assay type: cell-based
T1 construct: expressed in transfected cells; whole cells for cAMP
T1 sequence (Q61618 1-319): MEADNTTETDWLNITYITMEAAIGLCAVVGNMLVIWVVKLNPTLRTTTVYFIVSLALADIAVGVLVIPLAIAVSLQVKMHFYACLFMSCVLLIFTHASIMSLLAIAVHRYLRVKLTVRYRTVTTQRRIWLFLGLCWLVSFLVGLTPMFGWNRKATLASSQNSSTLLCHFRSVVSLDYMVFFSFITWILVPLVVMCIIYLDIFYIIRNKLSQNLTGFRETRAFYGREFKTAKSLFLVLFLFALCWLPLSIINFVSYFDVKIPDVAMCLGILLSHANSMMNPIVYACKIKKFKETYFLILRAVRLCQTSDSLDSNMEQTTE
Protocol: (§1) Additionally cAMP experiments were conducted at CHO cells recombinantly expressing human A3 or mouse A3 adenosine receptors, respectively.

[4] = target: T2, human A3 adenosine receptor (Homo sapiens, UniProt P0DMS8); experiment: cAMP accumulation at human A3 receptors expressed in CHO cells; assay type: cell-based
T2 construct: expressed in transfected cells; whole cells for cAMP
T2 sequence (P0DMS8 1-318): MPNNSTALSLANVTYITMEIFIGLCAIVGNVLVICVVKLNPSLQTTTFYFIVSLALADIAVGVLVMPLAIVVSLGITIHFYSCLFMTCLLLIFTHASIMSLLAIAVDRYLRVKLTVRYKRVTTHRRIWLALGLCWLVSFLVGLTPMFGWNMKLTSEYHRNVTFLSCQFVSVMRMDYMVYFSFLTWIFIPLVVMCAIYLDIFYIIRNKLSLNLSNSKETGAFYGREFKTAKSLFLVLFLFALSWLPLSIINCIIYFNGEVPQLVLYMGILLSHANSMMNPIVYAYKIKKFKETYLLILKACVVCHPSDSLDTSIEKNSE
Protocol: as §1

Structure (SMILES)	MRS2365 concentrations in heparin-treated plasma ([1]; heparin-treated mouse plasma, 0-90 seconds, even at 0 and 5 seconds)	half-life at 1 μM ([1]; male, CD-1, EDTA-prepared mouse plasma, 1 μM, incubation out to 240 minutes)	circulating and brain concentrations of MRS2365 ([2]; following intraperitoneal or intravenous administration, previous studies)	clearance in vivo ([2]; mice, heparin as blood anticoagulant for plasma preparation)	EC50 ([3]; CHO cells stably expressing mouse A3R, read-out: EC50 ± SEM, Mouse A3R, cAMP accumulation)	Emax at 100 µM ([3]; read-out: efficacy at 100 μM concentration in % relative to maximal effect of NECA, Mouse A3R, 100 μM, cAMP accumulation, CHO cells)	EC50 ([4]; CHO cells stably expressing human A3R, read-out: EC50 ± SEM, Human A3R, cAMP accumulation)	Emax at 100 µM ([4]; read-out: efficacy at 100 μM concentration in % relative to maximal effect of NECA, Human A3R, 100 μM, cAMP accumulation, CHO cells)
CSc1nc(N)c2ncn([C@H]3[C@H](O)[C@H](O)[C@]4(COP(=O)(O)OP(=O)(O)O)C[C@H]34)c2n1 [MRS2365]	extremely low	> 240 min	no detectable	rapidly cleared at a rate approximating cardiac output				
CSc1nc(N)c2ncn([C@H]3[C@H](O)[C@H](O)[C@]4(CO)C[C@H]34)c2n1 [MRS4322]					759 ± 170 nM	72%	3.63 ± 0.37 µM	70%
